Measured values published in US20030108556A1 (priority 2001, published 2003).
Entries after “also recorded” stand apart in the source; their conditions may differ. Ends that are not written are not given here.

What was measured:
PA63 heptamer [1] = molecular target: T1, PA63 heptamer (Bacillus anthracis, UniProt P13423); assay: biochemical; type: binding
PA63 heptamer [2] = molecular target: T1, PA63 heptamer

T1 sequence (P13423 197-764 limits assumed): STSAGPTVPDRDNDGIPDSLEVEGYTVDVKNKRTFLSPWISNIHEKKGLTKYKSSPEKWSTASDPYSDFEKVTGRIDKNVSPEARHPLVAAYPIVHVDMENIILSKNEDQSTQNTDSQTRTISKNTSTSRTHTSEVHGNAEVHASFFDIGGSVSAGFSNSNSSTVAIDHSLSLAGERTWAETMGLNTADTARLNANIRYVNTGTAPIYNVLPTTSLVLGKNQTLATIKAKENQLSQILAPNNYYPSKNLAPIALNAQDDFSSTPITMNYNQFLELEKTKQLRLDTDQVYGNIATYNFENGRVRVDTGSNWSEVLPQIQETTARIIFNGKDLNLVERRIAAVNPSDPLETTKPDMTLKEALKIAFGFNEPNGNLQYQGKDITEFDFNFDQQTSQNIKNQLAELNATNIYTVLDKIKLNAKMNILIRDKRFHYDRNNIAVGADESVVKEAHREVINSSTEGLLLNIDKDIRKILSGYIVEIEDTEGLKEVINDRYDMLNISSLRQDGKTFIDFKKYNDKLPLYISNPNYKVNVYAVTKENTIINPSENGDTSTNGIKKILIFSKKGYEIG

| Substance | effect on binding of radiolabeled LFN to PA63 on CHO cells (PA63 heptamer [1]) | properties of phage compared with P1 and P2 (PA63 heptamer [2]) | further results |
| --- | --- | --- | --- |
| HTSTYWWLD | all but one, HTSTYWWLD, could prevent; also recorded: could not compete | – | – |
| HYTYWWL | – | showed the same properties as P1 and P2 | – |
| HTSTYWWLDGAP | – | – | IC50 (PA63 heptamer [1]): ~150 µM |
| CWSSFAWYC | – | showed the same properties as P1 and P2 | – |
| FDLPFTMSTPTP [reference compound] | no effect | – | – |
